Experiment: logP value by HPLC according to Donovan et al.
Conditions: for chromatographic logP: HPLC with methanol/0.1% phosphoric acid gradient, pH 2
Procedure: • Operating temperature 18-24° C. • Flow 1.5 mL/min • Linear gradient (methanol/0.1% phosphoric acid pH 2) from 10% to 100% methanol in 9.4 min, equilibrium time between 2 runs 6 min
ca. 0.5 mg of analyte is added to 0.5 ml of a standard solution (440 mg methyl phenyl sulfonate and 380 μl toluene in 150 mL methanol). 2 μl of this sample solution is injected.
Because the distribution coefficients of the two standards running in each test are known, the distribution coefficient of the analytes can be determined from the relationships of the analyte/standard retention times.

Row | logP value (HPLC, methanol/0.1% phosphoric acid pH 2) | chromatographic logP | Compound
1 | −3.13 | – | N[C@@H](C(=O)N[C@@H]1C(=O)N2C(C(=O)O)=C(Cl)CC[C@H]12)c1ccccc1 [2d, Loracarbef, reference compound]
2 | – | -0.4 | NC(=O)c1cc(O)ccc1O [2,5-dihydroxybenzamide]
3 | – | -1.21 | O=C(NCCO)c1cc(O)ccc1O [2,5-dihydroxy-N-(2-hydroxyethyl)benzamide]

From patent US20110040086A1, “Novel Beta-Lactam Antibiotics, Methods for Their Production, and Their Use” (DRITTE PATENTPORTFOLIO BETEILIGUNGSGESELLSCHAFT MB, priority 2007, published 2011)
